# Where “and” joins values, the source holds several entries; their conditions need not be identical. Equal values may be shown once. Inconclusive results and toxic doses are left out.
# Test system: CD2F1 mice, L1210 leukemia ip, survival T/C
# Experiment: NCI In Vivo Anticancer Drug Screen. Data for tumor model L1210 Leukemia (intraperitoneal) in CD2F1 (CDF1) mice
# Details: endpoint: mean survival time, higher = longer survival
# Outline: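 Implant tumor; dose compound or vehicle; measure endpoint in both groups; report treated divided by control.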
# [1] = dose: 100.0 mg/kg/injection, schedule: Q01DX001 (ip), vehicle: saline with Tween-80
# [2] = dose: 100.0 mg/kg/injection, schedule: Q04DX002 (ip), vehicle: saline with Tween-80
# [3] = dose: 25.0 mg/kg/injection, schedule: Q01DX009 (ip), vehicle: saline with Tween-80
# [4] = dose: 100.0 mg/kg/injection, schedule: Q04DX003 (ip), vehicle: saline with Tween-80
# [5] = dose: 200.0 mg/kg/injection, schedule: Q04DX003 (ip), vehicle: saline with Tween-80
# [6] = dose: 400.0 mg/kg/injection, schedule: Q04DX003 (ip), vehicle: saline with Tween-80
# [7] = dose: 50.0 mg/kg/injection, schedule: Q01DX009 (ip), vehicle: saline with Tween-80
# [8] = dose: 100.0 mg/kg/injection, schedule: Q01DX009 (ip), vehicle: saline with Tween-80
# [9] = dose: 200.0 mg/kg/injection, schedule: Q01DX009 (ip), vehicle: saline with Tween-80
# [10] = dose: 100.0 mg/kg/injection, schedule: Q01DX009 (ip), vehicle: saline
# [11] = dose: 200.0 mg/kg/injection, schedule: Q01DX009 (ip), vehicle: saline
compound,measurement,setting,value
O=CC(NC(=O)OCc1ccccc1)C(O)C(O)C(O)CO (centres undefined),T/C,"dose: 25.0 mg/kg/injection, schedule: Q01DX001 (ip), vehicle: saline with Tween-80",105 % of control
same,T/C,"dose: 50.0 mg/kg/injection, schedule: Q01DX001 (ip), vehicle: saline with Tween-80",102 % of control
same,T/C,[1],102 % of control
C#CC(CC)OC(=O)c1cc([N+](=O)[O-])cc([N+](=O)[O-])c1 (centres undefined),T/C,[1],87 % of control
same,T/C,[2],93 % of control
same,T/C,"dose: 200.0 mg/kg/injection, schedule: Q01DX001 (ip), vehicle: saline with Tween-80",94 % of control
same,T/C,"dose: 200.0 mg/kg/injection, schedule: Q04DX002 (ip), vehicle: saline with Tween-80",93 % of control
same,T/C,"dose: 400.0 mg/kg/injection, schedule: Q01DX001 (ip), vehicle: saline with Tween-80",90 % of control
same,T/C,"dose: 400.0 mg/kg/injection, schedule: Q04DX002 (ip), vehicle: saline with Tween-80",93 % of control
O/N=C/c1ccccc1O.O/N=C/c1ccccc1O.[Cu],T/C,"dose: 1.56 mg/kg/injection, schedule: Q01DX009 (ip), vehicle: saline with Tween-80",98 % of control and 103 % of control
same,T/C,"dose: 3.12 mg/kg/injection, schedule: Q01DX009 (ip), vehicle: saline with Tween-80",102 % of control and 106 % of control
same,T/C,"dose: 6.25 mg/kg/injection, schedule: Q01DX009 (ip), vehicle: saline with Tween-80",93 % of control and 101 % of control
same,T/C,"dose: 12.5 mg/kg/injection, schedule: Q01DX009 (ip), vehicle: saline with Tween-80",100 % of control and 108 % of control
same,T/C,[3],114 % of control and 100 % of control
O=C(c1ccccc1)c1c[nH]c2ccccc12,T/C,[4],100 % of control
same,T/C,[5],86 % of control
same,T/C,[6],90 % of control
CC(=O)OC1CCCCC1OC(C)=O (centres undefined),T/C,[7],92 % of control
same,T/C,[8],92 % of control
same,T/C,[9],103 % of control
N#Cc1nc(-c2ccco2)c(-c2ccco2)nc1C#N,T/C,"dose: 25.0 mg/kg/injection, schedule: Q04DX002 (ip), vehicle: saline with Tween-80",102 % of control
same,T/C,"dose: 50.0 mg/kg/injection, schedule: Q04DX002 (ip), vehicle: saline with Tween-80",90 % of control
same,T/C,[1],96 % of control
same,T/C,[2],90 % of control
O=S1(=O)OCCC1C(O)(c1ccccc1)c1ccccc1 (centres undefined),T/C,"dose: 75.0 mg/kg/injection, schedule: Q01DX009 (ip), vehicle: saline",97 % of control
same,T/C,"dose: 75.0 mg/kg/injection, schedule: Q04DX003 (ip), vehicle: saline",100 % of control
same,T/C,"dose: 150.0 mg/kg/injection, schedule: Q01DX009 (ip), vehicle: saline",103 % of control
same,T/C,"dose: 150.0 mg/kg/injection, schedule: Q04DX003 (ip), vehicle: saline",97 % of control
same,T/C,"dose: 300.0 mg/kg/injection, schedule: Q01DX009 (ip), vehicle: saline",100 % of control
same,T/C,"dose: 300.0 mg/kg/injection, schedule: Q04DX003 (ip), vehicle: saline",97 % of control
CCS(=O)(=O)/C=C(\C#Cc1ccccc1)c1ccccc1,T/C,"dose: 50.0 mg/kg/injection, schedule: Q01DX009 (ip), vehicle: saline",90 % of control
same,T/C,[10],91 % of control
same,T/C,"dose: 100.0 mg/kg/injection, schedule: Q04DX003 (ip), vehicle: saline",102 % of control
same,T/C,[11],91 % of control
same,T/C,"dose: 200.0 mg/kg/injection, schedule: Q04DX003 (ip), vehicle: saline",102 % of control
same,T/C,"dose: 400.0 mg/kg/injection, schedule: Q04DX003 (ip), vehicle: saline",98 % of control
C[N+](C)(C)CCCCC[N+](C)(C)C,T/C,"dose: 6.25 mg/kg/injection, schedule: Q01DX009 (ip), vehicle: saline sonified",93 % of control
same,T/C,"dose: 6.25 mg/kg/injection, schedule: Q04DX003 (ip), vehicle: saline",103 % of control
same,T/C,"dose: 12.5 mg/kg/injection, schedule: Q01DX009 (ip), vehicle: saline sonified",90 % of control
same,T/C,"dose: 12.5 mg/kg/injection, schedule: Q04DX003 (ip), vehicle: saline",95 % of control
same,T/C,"dose: 25.0 mg/kg/injection, schedule: Q01DX009 (ip), vehicle: saline sonified",93 % of control
same,T/C,[3],100 % of control
same,T/C,"dose: 25.0 mg/kg/injection, schedule: Q04DX003 (ip), vehicle: saline",101 % of control
same,T/C,[7],108 % of control
same,T/C,[8],103 % of control
same,T/C,[4],86 % of control
COC(=O)C1C2CC(C(Br)C2Br)C1C(=O)O (centres undefined),T/C,[8],96 % of control
same,T/C,[4],96 % of control
same,T/C,[9],98 % of control
same,T/C,[5],96 % of control and 94 % of control
same,T/C,"dose: 400.0 mg/kg/injection, schedule: Q01DX009 (ip), vehicle: saline with Tween-80",97 % of control
same,T/C,[6],88 % of control and 98 % of control
O=C1/C(=C/c2ccccc2[N+](=O)[O-])CCc2ccccc21,T/C,"dose: 100.0 mg/kg/injection, schedule: Q01DX009 (ip), vehicle: Klucel (hydroxypropylcellulose) (HPC)",97 % of control
same,T/C,"dose: 200.0 mg/kg/injection, schedule: Q01DX009 (ip), vehicle: Klucel (hydroxypropylcellulose) (HPC)",91 % of control
same,T/C,"dose: 400.0 mg/kg/injection, schedule: Q01DX009 (ip), vehicle: Klucel (hydroxypropylcellulose) (HPC)",96 % of control
CS(=O)(=O)OCCN(CCOS(C)(=O)=O)c1ccc(N=Nc2ccccc2C(=O)O)cc1,T/C,"dose: 1.56 mg/kg/injection, schedule: Q01DX009 (ip), vehicle: Klucel (hydroxypropylcellulose) (HPC)",124 % of control
same,T/C,"dose: 3.12 mg/kg/injection, schedule: Q01DX009 (ip), vehicle: Klucel (hydroxypropylcellulose) (HPC)",155 % of control
same,T/C,"dose: 6.25 mg/kg/injection, schedule: Q01DX009 (ip), vehicle: Klucel (hydroxypropylcellulose) (HPC)",176 % of control
CC(=O)O[C@@H]1[C@@H](O)[C@H]2O[C@@H]3C=C(C)CC[C@]3(CO)[C@]1(C)[C@@]21CO1,T/C,"dose: 1.25 mg/kg/injection, schedule: Q01DX009 (ip), vehicle: saline with Tween-80",103 % of control
same,T/C,"dose: 2.5 mg/kg/injection, schedule: Q01DX009 (ip), vehicle: saline with Tween-80",115 % of control
same,T/C,"dose: 5.0 mg/kg/injection, schedule: Q01DX009 (ip), vehicle: saline with Tween-80",115 % of control
C=CC(CN1CC1)OC(C)=O (centres undefined),T/C,"dose: 2.5 mg/kg/injection, schedule: Q03DX003 (ip), vehicle: saline",107 % of control
same,T/C,"dose: 2.5 mg/kg/injection, schedule: Q04DX003 (ip), vehicle: saline",100 % of control
same,T/C,"dose: 3.75 mg/kg/injection, schedule: Q01DX009 (ip), vehicle: saline",159 % of control
same,T/C,"dose: 5.0 mg/kg/injection, schedule: Q01DX007 (ip), vehicle: saline",172 % of control
same,T/C,"dose: 5.0 mg/kg/injection, schedule: Q01DX009 (ip), vehicle: saline",160 % of control
same,T/C,"dose: 5.0 mg/kg/injection, schedule: Q03DX003 (ip), vehicle: saline",121 % of control
same,T/C,"dose: 5.0 mg/kg/injection, schedule: Q04DX003 (ip), vehicle: saline",111 % of control
same,T/C,"dose: 7.5 mg/kg/injection, schedule: Q01DX009 (ip), vehicle: saline",206 % of control and 249 % of control
same,T/C,"dose: 10.0 mg/kg/injection, schedule: Q04DX003 (ip), vehicle: saline",153 % of control
same,T/C,"dose: 30.0 mg/kg/injection, schedule: Q01DX009 (ip), vehicle: saline",91 % of control
COc1ncn(C2CC(OC(=O)c3ccc(C)cc3)C(COC(=O)c3ccc(C)cc3)O2)c(=O)n1 (centres undefined),T/C,[5],86 % of control
COP(=O)(OC)C(=O)c1cccc2ccccc12,T/C,[4],95 % of control
same,T/C,[5],93 % of control
same,T/C,[6],96 % of control
CCC(=O)O/N=C(\c1ccccc1)c1cccnc1,T/C,"dose: 100.0 mg/kg/injection, schedule: Q01DX001 (ip), vehicle: other",113 % of control
same,T/C,"dose: 200.0 mg/kg/injection, schedule: Q01DX001 (ip), vehicle: other",98 % of control
same,T/C,"dose: 400.0 mg/kg/injection, schedule: Q01DX001 (ip), vehicle: other",101 % of control
C=C(C)C1CCC2(C(=O)O)CCC3(C)C(CCC4C5(C)CCC(OC(C)=O)C(C)(C)C5CCC43C)C12 (centres undefined),T/C,"dose: 100.0 mg/kg/injection, schedule: Q01DX001 (ip), vehicle: Klucel (hydroxypropylcellulose) (HPC)",93 % of control
same,T/C,"dose: 200.0 mg/kg/injection, schedule: Q01DX001 (ip), vehicle: Klucel (hydroxypropylcellulose) (HPC)",93 % of control
same,T/C,"dose: 400.0 mg/kg/injection, schedule: Q01DX001 (ip), vehicle: Klucel (hydroxypropylcellulose) (HPC)",91 % of control
CCOCCNc1ccc(S(=O)(=O)c2ccc(N)cc2)cc1N,T/C,[10],103 % of control
same,T/C,[11],92 % of control
same,T/C,"dose: 400.0 mg/kg/injection, schedule: Q01DX009 (ip), vehicle: saline",92 % of control
